# In patent publication US11919892B1, “2-(benzo[d]thiazol-2-yl)-N'-(2-(5-(4-chlorophenyl)-1,3,4-oxadiazol-2-ylthio)acetoxy)acetimidamide as an antimicrobial compound” (KING FAISAL UNIVERSITY, priority 2023, dated 2024):
# Experiments:
# Staphylococcus aureus = assay: Agar plate disc-diffusion, antibacterial, Staphylococcus aureus; assay type: cell-based; conditions: nutrient agar, 37° C., 48 hours
# Method: (§1) The agar plate disc-diffusion method was applied. Sterilized filter papers (6 mm in diameter) were wetted with 10 μL of a solution of 2-(benzo[d]thiazol-2-yl)-N′-(2-(5-(4-chlorophenyl)-1, 3,4-oxadiazol-2-ylthio)acetoxy)acetimidamide (3) to be tested, containing 10 mg/mL in DMSO, and the discs were allowed to air dry. The discs were then placed onto the surface of agar plates (nutrient agar for bacteria and Sabouraud's dextrose agar for fungi) seeded with the test organism. Each plate contained 15 mL of the agar medium, previously seeded with 0.2 mL of the broth culture of each organism pregrown for 18 hours. The plates were incubated at 37° C. for 48 hours and 72 hours for fungi. The inhibition zones were measured in mm. Discs impregnated with DMSO were used as a control, and their inhibition zone was subtracted from the tested compound's actual inhibition zone.
# Pseudomonas aeruginosa = assay: Agar plate disc-diffusion, antibacterial, Pseudomonas aeruginosa; assay type: cell-based; conditions: nutrient agar, 37° C., 48 hours
# Method: as §1
# Bacillus Cereus = assay: Agar plate disc-diffusion, antibacterial, Bacillus cereus; assay type: cell-based; conditions: nutrient agar, 37° C., 48 hours
# Method: as §1
# Escherichia coli = assay: Agar plate disc-diffusion, antibacterial, Escherichia coli; assay type: cell-based; conditions: nutrient agar, 37° C., 48 hours
# Method: as §1
# Aspergillus flavus = assay: Agar plate disc-diffusion, antifungal, Aspergillus flavus; assay type: cell-based; conditions: Sabouraud's dextrose agar, 72 hours
# Method: as §1
# [1] = test system: Chrysosporium keratinophilum; assay: Agar plate disc-diffusion, antifungal, Chrysosporium keratinophilum; assay type: cell-based; conditions: Sabouraud's dextrose agar, 72 hours
# Method: as §1
# [2] = A = concentration of comp. = 10,000 μL
# [3] = B = concentration of comp. = 30,000 μL
# [4] = C = concentration of comp. = 50,000 μL
compound,measurement,setting,value
"N/C(Cc1nc2ccccc2s1)=N\OC(=O)CSc1nnc(-c2ccc(Cl)cc2)o1 [compound 3, 2-(benzo[d]thiazol-2-yl)-N′-(2-(5-(4-chlorophenyl)-1,3,4-oxadiazol-2-ylthio)acetoxy)acetimidamide]","inhibition zone, Staphylococcus aureus, A",Staphylococcus aureus; [2],33 mm
same,"inhibition zone, Staphylococcus aureus, B",Staphylococcus aureus; [3],40 mm
same,"inhibition zone, Staphylococcus aureus, C",Staphylococcus aureus; [4],52 mm
same,"inhibition zone, Pseudomonas aeruginosa, A",Pseudomonas aeruginosa; [2],23 mm
same,"inhibition zone, Pseudomonas aeruginosa, B",Pseudomonas aeruginosa; [3],27 mm
same,"inhibition zone, Pseudomonas aeruginosa, C",Pseudomonas aeruginosa; [4],43 mm
same,"inhibition zone, Bacillus Cereus, A",Bacillus Cereus; A =,25 mm
same,"inhibition zone, Bacillus Cereus, B",Bacillus Cereus; [3],28 mm
same,"inhibition zone, Bacillus Cereus, C",Bacillus Cereus; [4],39 mm
same,melting point,,157 to 158 °C
same,"inhibition zone, Escherichia coli, A",Escherichia coli; [2],25 mm
same,"inhibition zone, Escherichia coli, B",Escherichia coli; [3],34 mm
same,"inhibition zone, Escherichia coli, C",Escherichia coli; [4],47 mm
same,"inhibition zone, Aspergillus flavus, A",Aspergillus flavus; [2],24 mm
same,"inhibition zone, Aspergillus flavus, B",Aspergillus flavus; [3],29 mm
same,"inhibition zone, Aspergillus flavus, C",Aspergillus flavus; [4],41 mm
same,"inhibition zone, Chrysosporium keratinophilum, A",[1]; [2],26 mm
same,"inhibition zone, Chrysosporium keratinophilum, B",[1]; [3],31 mm
same,"inhibition zone, Chrysosporium keratinophilum, C",[1]; [4],49 mm
